Literature values in patent US20130345257A1, “COMPOSITION FOR LUPUS NEPHRITIS AND METHODS OF MAKING AND USING THE SAME” (The Regents of the University of California, priority 2012, published 2013).

Experiments:
[1] = pulled out of a clinical trial; cited from earlier work
murine SLE model = conditions: mouse, in vivo; cited from earlier work
human lupus = conditions: phase 1b trial; cited from earlier work

Row | SMILES | Toxicity in clinical trial [1] | Efficacy in murine SLE model (murine SLE model) | Adverse events profile (human lupus)
1 | CN(C(=O)c1c(O)c2ccccc2n(C)c1=O)c1ccccc1 [roquinimex] | serious cardiovascular toxicities | – | –
2 | CCc1cccc2c1c(O)c(C(=O)N(CC)c1ccccc1)c(=O)n2C [paquinimod] | – | effective | favorable adverse events profile
